Measurements: patent publication US20060134221A1, “Methods for producing block copolymer/amphiphilic particles” (priority 2004, published 2006)

Experiments:
[1] = Particle size measurements using photon correlation spectroscopy (mean Z average diameter, polydispersity); assay type: physicochemical; details: for interaction with poloxamer: individual benzalkonium chloride analogs, thermal cycling (Example 1)
From the text: The following examples employ a Malvern 3000 HS Zetasizer to measure particle size. Particles with diameters that range from 1 to 5000 nm, can be measured using the method of photon correlation spectroscopy (PCS). Particles in this size range are in constant random thermal (or Brownian) motion. This motion causes the intensity of light scattered from the particles to form a moving speckle pattern which, with the use of optics and a photomultiplier, can be detected as a change in intensity with time. Large particles move more slowly than small particles, therefore the rate of fluctuation of light scattered from large particles is slower. PCS uses the rate of change of these light fluctuations to determine the size distribution of the particles scattering light. Data is plotted as the auto-correlation function (counts per correlator against delay time). Analysis of this function obtained over time, with a sufficient number of data points, enables the translational diffusion coefficient of the particles undergoing Brownian motion to be calculated. From this coefficient, together with the temperature and viscosity of the suspending liquid, the particle size can be calculated. For aqueous dispersions, the default set-up of the Malvern 3000 HS Zetasizer calculates the viscosity from the temperature. The best single measurement to describe the size of a poloxamer formulation is the mean Z average or the hydrodynamic diameter, which is calculated using cumulants analysis. The polydispersity describes the width of the distribution.
The size of the particles produced was determined using photon correlation spectroscopy. The particle size as reported herein refers to the mean Z average diameter also known as the hydrodynamic diameter. The surface charge of the particles was also determined using micro-electrophoresis.

[2] = Dissolution characteristics of BAK homologs in PBS; assay type: physicochemical
From the text: Stock solutions of benzyldimethyldodecylammonium chloride (BAK C12, Fluka Chemical Corp., Milwaukee, Wis., cat #53233), benzyldimethyltetradecylammonium chloride (BAK C14, TCI America, Portland, Oreg., cat #A0208), benzyldimethylhexadecyllammonium chloride (BAK C16, TCI America, Portland, Oreg., cat #B0237) and benzyldimethyloctadecylammonium chloride (BAK C18, TCI America, Portland, Oreg., cat #B1297) were made in PBS.

[3] = Example 9, 269 mg in 70 ml sterile water for injection, homogenized/extruded 10,000 psi, 15° C., 5 passes

Row | Structure (SMILES) | Particle size [1, 3] [nm] | polydispersity [1, 3] | interaction with poloxamer [1] | formation of cell delivery particles with CRL-1005 and DNA ([1]; thermal cycling method) | Dissolution Temperature ([2]; Concentration in PBS 5 mM) [°C] | Dissolution Temperature ([2]; Concentration in PBS 2 mM) [°C] | Dissolution Temperature ([2]; Concentration in PBS 1 mM) [°C] | formation of small, uniform cell delivery particles with CRL-1005 ([1]; Example 13, thermal cycling method)
1 | CCCCCCCCCCCCCCOCC(C[N+](C)(C)CCO)OCCCCCCCCCCCCCC.[Br-] (racemic) [DMRIE, (±)-N-(2-hydroxyethyl)-N,N-dimethyl-2,3-bis(tetradecyloxy)-1-propanaminium bromide] | 65 | 0.21 | – | – | – | – | – | –
2 | CCCCCCCCCCCC[N+](C)(C)Cc1ccccc1.[Cl-] [BAK C12, benzyldimethyldodecylammonium chloride] | – | – | does not interact with poloxamer | do not form cell delivery particles | – | – | – | –
3 | CCCCCCCCCCCCCC[N+](C)(C)Cc1ccccc1.[Cl-] [BAK C14, benzyldimethyltetradecylammonium chloride] | – | – | interact with poloxamer to produce submicron particles with a positive surface charge | – | 25 | – | – | –
4 | CCCCCCCCCCCCCCCC[N+](C)(C)Cc1ccccc1.[Cl-] [BAK C16, benzyldimethylhexadecyllammonium chloride] | – | – | interact with poloxamer to produce submicron particles with a positive surface charge | – | 45 | 45 | – | –
5 | CCCCCCCCCCCCCCCCCC[N+](C)(C)Cc1ccccc1.[Cl-] [BAK C18, benzyldimethyloctadecylammonium chloride] | – | – | does interact with poloxamer to produce large micron sized particles with a positive surface charge | do not form cell delivery particles | 45 | 45 | 45 | does not form small nor uniform cell delivery particles
